# Laboratory results taken from US10004701B2, “Methods and compositions for treating infection” (UNIVERSITY OF ROCHESTER, priority 2012, dated 2018).
# Where a name gives a salt, the structure may show the parent alone. Read-outs that look alike come from different tables or passages of the source.
# Columns and labels:
# Assay in all cases: AK assay 384-well format, Prestwick library screening
# [1] = system: E. faecium; assay type: cell-based, Enterococcus faecium; settings: Enterococcus faecium, 3 h, 50 μM final drug concentration
# [2] = system: S. aureus strain USA300-0114; assay type: cell-based, Staphylococcus aureus; settings: Staphylococcus aureus, USA300, 3 h, 50 μM final drug concentration
# [3] = system: K. pneumoniae; assay type: cell-based, Klebsiella pneumoniae; settings: Klebsiella pneumoniae, 3 h, 50 μM final drug concentration
# [4] = system: A. baumannii strain 98-37-09; assay type: cell-based, Acinetobacter baumannii; settings: Acinetobacter baumannii, 983709, 3 h, 50 μM final drug concentration
# [5] = system: P. aeruginosa; assay type: cell-based, Pseudomonas aeruginosa; settings: Pseudomonas aeruginosa, 3 h, 50 μM final drug concentration
# [6] = system: E. cloacae; assay type: cell-based, Enterobacter cloacae; settings: Enterobacter cloacae, 3 h, 50 μM final drug concentration
# [7] = system: E. coli; assay type: cell-based, Escherichia coli; settings: Escherichia coli, 3 h, 50 μM final drug concentration
# [8] = planktonic E. faecium, 384-well, cutoff for positive-scoring molecules 3-fold increase, read-out: AK-based Prestwick Library Screening Results: E. faecium (increase in extracellular AK activity)
# [9] = planktonic S. aureus, 384-well, cutoff for positive-scoring molecules 3-fold increase, read-out: AK-based Prestwick Library Screening Results: S. aureus (increase in extracellular AK activity)
# [10] = planktonic K. pneumoniae, 384-well, cutoff for positive-scoring molecules 3-fold increase, read-out: AK-based Prestwick Library Screening Results: K. pneumoniae (increase in extracellular AK activity)
# [11] = planktonic A. baumannii, 384-well, cutoff for positive-scoring molecules 3-fold increase, read-out: AK-based Prestwick Library Screening Results: A. baumannii (increase in extracellular AK activity)
# [12] = planktonic P. aeruginosa, 384-well, cutoff for positive-scoring molecules 3-fold increase, read-out: AK-based Prestwick Library Screening Results: P. aeruginosa (increase in extracellular AK activity)
# [13] = planktonic E. cloacae, 384-well, cutoff for positive-scoring molecules 3-fold increase, read-out: AK-based Prestwick Library Screening Results: E. cloacae (increase in extracellular AK activity)
# [14] = planktonic E. coli, 384-well, cutoff for positive-scoring molecules 3-fold increase, read-out: AK-based Prestwick Library Screening Results: E. coli (increase in extracellular AK activity)
# [15] = cutoff for positive-scoring molecules 3-fold increase, read-out: AK-based Prestwick Library Screening Results, E. faecium (fold increase in extracellular AK activity)
# [16] = cutoff for positive-scoring molecules 3-fold increase, read-out: AK-based Prestwick Library Screening Results, S. aureus (fold increase in extracellular AK activity)
# [17] = cutoff for positive-scoring molecules 3-fold increase, read-out: AK-based Prestwick Library Screening Results, K. pneumoniae (fold increase in extracellular AK activity)
# [18] = cutoff for positive-scoring molecules 3-fold increase, read-out: AK-based Prestwick Library Screening Results, A. baumannii (fold increase in extracellular AK activity)
# [19] = cutoff for positive-scoring molecules 3-fold increase, read-out: AK-based Prestwick Library Screening Results, P. aeruginosa (fold increase in extracellular AK activity)
# [20] = cutoff for positive-scoring molecules 3-fold increase, read-out: AK-based Prestwick Library Screening Results, E. cloacae (fold increase in extracellular AK activity)
# [21] = cutoff for positive-scoring molecules 3-fold increase, read-out: AK-based Prestwick Library Screening Results, E. coli (fold increase in extracellular AK activity)
# [22] = planktonic E. faecium, positive cutoff 3-fold increase, read-out: AK-based Prestwick library screening result, E. faecium (fold increase in extracellular AK activity)
# [23] = planktonic S. aureus, positive cutoff 3-fold increase, read-out: AK-based Prestwick library screening result, S. aureus (fold increase in extracellular AK activity)
# [24] = planktonic K. pneumoniae, positive cutoff 3-fold increase, read-out: AK-based Prestwick library screening result, K. pneumoniae (fold increase in extracellular AK activity)
# [25] = planktonic A. baumannii, positive cutoff 3-fold increase, read-out: AK-based Prestwick library screening result, A. baumannii (fold increase in extracellular AK activity)
# [26] = planktonic P. aeruginosa, positive cutoff 3-fold increase, read-out: AK-based Prestwick library screening result, P. aeruginosa (fold increase in extracellular AK activity)
# [27] = planktonic E. cloacae, positive cutoff 3-fold increase, read-out: AK-based Prestwick library screening result, E. cloacae (fold increase in extracellular AK activity)
# [28] = planktonic E. coli, positive cutoff 3-fold increase, read-out: AK-based Prestwick library screening result, E. coli (fold increase in extracellular AK activity)
smiles,measurement,setting,value
CCN(CC)CCCC(C)Nc1c2ccc(Cl)cc2nc2ccc(OC)cc12 (stereo not drawn) [Quinacrine dihydrochloride dihydrate],fold induction at 50 µM,[1]; [8],1
same,fold induction at 50 µM,[2]; [9],1.2
same,fold induction at 50 µM,[3]; [10],1
same,fold induction at 50 µM,[4]; [11],1.3
same,fold induction at 50 µM,[5]; [12],0.9
same,fold induction at 50 µM,[6]; [13],1.4
same,fold induction at 50 µM,[7]; [14],1.2
CCOC(=O)[C@H](CCc1ccccc1)N[C@@H](C)C(=O)N1Cc2ccccc2C[C@H]1C(=O)O [Quinapril HCl],fold induction at 50 µM,[1]; [15],1.1
same,fold induction at 50 µM,[2]; [16],1.2
same,fold induction at 50 µM,[3]; [17],1
same,fold induction at 50 µM,[4]; [18],1.2
same,fold induction at 50 µM,[5]; [19],1.2
same,fold induction at 50 µM,[6]; [20],1.6
same,fold induction at 50 µM,[7]; [21],1.2
CCC1NC(=O)c2cc(S(N)(=O)=O)c(Cl)cc2N1 (stereo not drawn) [Quinethazone],fold induction at 50 µM,[1]; [15],0.9
same,fold induction at 50 µM,[2]; [16],0.4
same,fold induction at 50 µM,[3]; [17],0.6
same,fold induction at 50 µM,[4]; [18],0.5
same,fold induction at 50 µM,[5]; [19],0.5
same,fold induction at 50 µM,[6]; [20],0.4
same,fold induction at 50 µM,[7]; [21],0.6
O=C(O)[C@]1(O)C[C@@H](O)[C@@H](O)[C@H](O)C1 [Quinic acid],fold induction at 50 µM,[1]; [22],1
same,fold induction at 50 µM,[2]; [23],1.2
same,fold induction at 50 µM,[3]; [24],1.3
same,fold induction at 50 µM,[4]; [25],1.4
same,fold induction at 50 µM,[5]; [26],1.1
same,fold induction at 50 µM,[6]; [27],1.2
same,fold induction at 50 µM,[7]; [28],1.2
CC(=O)SCC(Cc1ccccc1)C(=O)NCC(=O)OCc1ccccc1 (stereo not drawn) [Racecadotril],fold induction at 50 µM,"[1]; planktonic, cutoff for positive 3-fold increase, read-out: AK-based Prestwick Library Screening Results, E. faecium (fold increase in extracellular AK activity)",1
same,fold induction at 50 µM,"[2]; planktonic, cutoff for positive 3-fold increase, read-out: AK-based Prestwick Library Screening Results, S. aureus (fold increase in extracellular AK activity)",1.9
same,fold induction at 50 µM,"[3]; planktonic, cutoff for positive 3-fold increase, read-out: AK-based Prestwick Library Screening Results, K. pneumoniae (fold increase in extracellular AK activity)",1.1
same,fold induction at 50 µM,"[4]; planktonic, cutoff for positive 3-fold increase, read-out: AK-based Prestwick Library Screening Results, A. baumannii (fold increase in extracellular AK activity)",1.3
same,fold induction at 50 µM,"[5]; planktonic, cutoff for positive 3-fold increase, read-out: AK-based Prestwick Library Screening Results, P. aeruginosa (fold increase in extracellular AK activity)",1.2
same,fold induction at 50 µM,"[6]; planktonic, cutoff for positive 3-fold increase, read-out: AK-based Prestwick Library Screening Results, E. cloacae (fold increase in extracellular AK activity)",1.5
same,fold induction at 50 µM,"[7]; planktonic, cutoff for positive 3-fold increase, read-out: AK-based Prestwick Library Screening Results, E. coli (fold increase in extracellular AK activity)",1.2
O=C(c1ccc(OCCN2CCCCC2)cc1)c1c(-c2ccc(O)cc2)sc2cc(O)ccc12 [Raloxifene hydrochloride],fold induction at 50 µM,[1]; [15],0.9
same,fold induction at 50 µM,[2]; [16],1.2
same,fold induction at 50 µM,[3]; [17],1.1
same,fold induction at 50 µM,[4]; [18],1.5
same,fold induction at 50 µM,[5]; [19],1.2
same,fold induction at 50 µM,[6]; [20],1.3
same,fold induction at 50 µM,"[7]; […], read-out: AK-based Prestwick Library Screening Results, E. coli (fold increase in extracellular AK activity)",1.5
CCOC(=O)[C@H](CCc1ccccc1)N[C@@H](C)C(=O)N1[C@H](C(=O)O)C[C@@H]2CCC[C@@H]21 [Ramipril],fold induction at 50 µM,[1]; [22],1
same,fold induction at 50 µM,[2]; [23],1.2
same,fold induction at 50 µM,[3]; [24],1
same,fold induction at 50 µM,[4]; [25],1.3
same,fold induction at 50 µM,[5]; [26],1.2
same,fold induction at 50 µM,[6]; [27],1.1
same,fold induction at 50 µM,[7]; [28],1.1
CNC(=C[N+](=O)[O-])NCCSCc1ccc(CN(C)C)o1 [Ranitidine hydrochloride],fold induction at 50 µM,[1]; [8],1.1
same,fold induction at 50 µM,[2]; [9],1.2
same,fold induction at 50 µM,[3]; [10],0.9
same,fold induction at 50 µM,[4]; [11],1.1
same,fold induction at 50 µM,[5]; [12],1.3
same,fold induction at 50 µM,[6]; [13],1.5
same,fold induction at 50 µM,[7]; [14],1.4
COc1ccccc1OCC(O)CN1CCN(CC(=O)Nc2c(C)cccc2C)CC1 (stereo not drawn) [Ranolazine],fold induction at 50 µM,[1]; [22],0.9
same,fold induction at 50 µM,[2]; [23],1
same,fold induction at 50 µM,[3]; [24],0.9
same,fold induction at 50 µM,[4]; [25],1.2
same,fold induction at 50 µM,[5]; [26],1
same,fold induction at 50 µM,[6]; [27],1.4
same,fold induction at 50 µM,[7]; [28],1.2
COC(=O)[C@H]1[C@H]2C[C@H]3c4[nH]c5ccccc5c4CCN3C[C@H]2CC[C@@H]1O [Rauwolscine hydrochloride],fold induction at 50 µM,"[1]; planktonic E. faecium, cutoff for positive-scoring molecules 3-fold increase, read-out: AK-based Prestwick Library Screening Results, E. faecium (increase in extracellular AK activity)",1
same,fold induction at 50 µM,"[2]; planktonic S. aureus, cutoff for positive-scoring molecules 3-fold increase, read-out: AK-based Prestwick Library Screening Results, S. aureus (increase in extracellular AK activity)",0.7
same,fold induction at 50 µM,"[3]; planktonic K. pneumoniae, cutoff for positive-scoring molecules 3-fold increase, read-out: AK-based Prestwick Library Screening Results, K. pneumoniae (increase in extracellular AK activity)",0.6
same,fold induction at 50 µM,"[4]; planktonic A. baumannii, cutoff for positive-scoring molecules 3-fold increase, read-out: AK-based Prestwick Library Screening Results, A. baumannii (increase in extracellular AK activity)",0.8
same,fold induction at 50 µM,"[5]; planktonic P. aeruginosa, cutoff for positive-scoring molecules 3-fold increase, read-out: AK-based Prestwick Library Screening Results, P. aeruginosa (increase in extracellular AK activity)",0.6
same,fold induction at 50 µM,"[6]; planktonic E. cloacae, cutoff for positive-scoring molecules 3-fold increase, read-out: AK-based Prestwick Library Screening Results, E. cloacae (increase in extracellular AK activity)",0.8
same,fold induction at 50 µM,"[7]; planktonic E. coli, cutoff for positive-scoring molecules 3-fold increase, read-out: AK-based Prestwick Library Screening Results, E. coli (increase in extracellular AK activity)",0.7
CCN1CCC[C@H]1CNC(=O)c1c(OC)ccc(Br)c1OC [Remoxipride Hydrochloride],fold induction at 50 µM,[1]; [15],0.9
same,fold induction at 50 µM,[2]; [16],0.6
same,fold induction at 50 µM,[3]; [17],0.6
same,fold induction at 50 µM,[4]; [18],0.7
same,fold induction at 50 µM,[5]; [19],0.7
same,fold induction at 50 µM,[6]; [20],0.8
same,fold induction at 50 µM,[7]; [21],0.7
CCOc1cc(CC(=O)N[C@@H](CC(C)C)c2ccccc2N2CCCCC2)ccc1C(=O)O [Repaglinide],fold induction at 50 µM,[1]; [15],0.9
same,fold induction at 50 µM,[2]; [16],0.3
same,fold induction at 50 µM,[3]; [17],0.4
same,fold induction at 50 µM,[4]; [18],0.4
same,fold induction at 50 µM,[5]; [19],0.4
same,fold induction at 50 µM,[6]; [20],0.4
same,fold induction at 50 µM,[7]; [21],0.4
